Experimental data reported in paper PMC9396645 (Frontiers in Chemistry, 2022).

Tests used:
[1] = system: prostate cancer patients; assay: PSMA-PET/CT of prostate cancer patients; type: in vivo, human; conditions: patient PET/CT, 20 nmol
Experimental: Diagnostic PSMA-PET/computed tomography (CT) examinations were performed 1 and 3 h after antecubital injection of 339 MBq/20 nmol ^68Ga-CA028 or 295 MBq/20 nmol ^68Ga-CA030 per patient, respectively. The method for assessing the biodistribution was performed as previously described by Afshar-Oromieh et al. ([Afshar-Oromieh et al., 2015b]). Applying the clinical standard software Syngo (Siemens), which was used to define the VOIs in the PET images, the activity distributions of the source organs was determined. This reference ([Afshar-Oromieh et al., 2015b]) was also used as a standard of reference for ^68Ga-PSMA-617 (Table 3).

[2] = system: C4-2 tumor bearing BALB/c nu/nu mice; assay: Small-animal PET imaging in C4-2 tumor bearing mice; type: in vivo, mouse; conditions: for mSUV Bladder / mSUV Heart / mSUV Kidneys / mSUV Liver / mSUV Muscle / mSUV Tumor: small-animal PET, C4-2 xenograft mouse
Excerpt: (§1) Athymic male nude mice (BALB/c nu/nu) were purchased from Charles River at 4‒5 weeks of age (19–23 g). The mice were kept under pathogen-free conditions for 1 week prior to the study. The mice had free access to water and food and were housed with a 12-h/12-h light/dark cycle. The xenografts required for positron emission tomography (PET) imaging and biodistribution studies were obtained by inoculation of 5 × 10^7 C4-2 cells in 50% Matrigel in Opti-MEM I (1 ×) medium. For this purpose, the mice were anesthetized with 2% sevoflurane, and inoculation was performed subcutaneously on the right trunk. When the size of the tumor was approximately 1 cm^3, the studies were performed.
For small-animal PET imaging, the different ^68Ga-labeled PSMA ligands (0.5 nmol, 20 MBq in approximately 100 µL 0.9% saline) were injected into C4-2 tumor bearing mice. The dynamic PET was recorded in a small animal PET scanner (Siemens Inveon D-PET). The standardized uptake values (SUVs) were obtained from conventional (non-dynamic) PET images. The formula for the SUV was SUV=activity in ROI (Bq/ml) × animal weight (g)/injected dose(Bq)
Manual delineation of the respective appropriate whole organ (heart, kidneys, bladder, tumor, with an approximate volume of 100–500 µL) yielded the volumes of interest (VOIs). For this purpose, whole organs or parts of the organ/tissue (liver and muscle) were used. The images were reconstructed based on the procedure: OSEM 3D/SP MAP with 16 subsets, two iterations, and an image x-y size: 256, image z size: 161. The data were not modified with a post-processing filter. Analysis of the images and time-activity curves (TACs) was conducted on the Inveon™ Acquisition Workplace (IAW) from Siemens IRW 4.1. […] […] The mean SUVs were plotted over time in order to compare the different radiotracers.

[3] = system: C4-2 tumor bearing BALB/c nu/nu mice; assay: Biodistribution (organ distribution) in C4-2 tumor-bearing mice; type: in vivo, mouse
Excerpt: as §1
Based on the results of the PET imaging, ^68Ga-CA028 and ^68Ga-CA030, the most promising compounds, were chosen for biodistribution studies in C4-2 tumor-bearing mice. The labeled compound (0.05 nmol, 20 MBq) was administered to the mice via tail vein injection. Animals were sacrificed and organs were harvested at the following time points: 20 min, 1, 2, and 4 h p.i. The organs were dissected and weighed, the activity was measured with a γ-counter, and the % ID/g was calculated.

[4] = Determination of plasma half-life in athymic nude mice; type: in vivo, mouse; conditions: athymic nude mice (n = 3), i.v. 4–6 MBq, biexponential fit, weighted overall half-life
Experimental: The radioligands ^68Ga-CA027 and ^68Ga-CA028 (4–6 MBq) were injected into athymic nude mice (n = 3) via the lateral tail vein. Blood (25–50 μL) was collected 2, 5, 15, 30, 45, 60, 90, and 120 min post injection via either the tail or saphenous vein, and the activity of the blood samples was determined in a γ-counter. Both procedures furnished consistent and reproducible results. The percentage of the injected dose per gram of tissue (%ID/g) was calculated, and the resulting values were plotted as a function of time. A biexponential decay curve was used as a fit function, accounting for a short blood half-life (a-phase) during the initial phase directly after injection and a longer blood half-life during the terminal phase (b-phase). The data analysis program Prism 7™ was used to determine both half-lives, t1/2-a and t1/2-b, as well as their relative contribution (in %) to the overall half-life (t1/2). Subsequently, both half-lives were weighed according to their relative contribution to the overall blood half-life t1/2. At the time of tracer injection (t = 0), it was assumed that %ID/g = 50. The injected dose at t = 0 equals 100%, divided by the total mass of blood (approximately 2 g in the case of 6‒8 weeks old mice) gives %ID/g t=0 = 50.

## O=C([O-])CN1CCN(CC(=O)[O-])CCN(Cc2ccc(C(=O)NCC3CCC(C(=O)NC(Cc4ccc5ccccc5c4)C(=O)NCCCCC(NC(=O)NC(CCC(=O)O)C(=O)O)C(=O)O)CC3)cc2)CCN(CC(=O)[O-])CC1.[68Ga+3] (stereo not drawn) [^68Ga-CA028]
[1]; first listed bone metastasis, 1 h p.i.
  SUV mean Bone metastasis: 4.5
[1]; first listed bone metastasis, 3 h p.i.
  SUV mean Bone metastasis: 4.1
[1]; first listed lymph node, 1 h p.i.
  SUV mean Lymph node: 13.5
[1]; first listed lymph node, 3 h p.i.
  SUV mean Lymph node: 10.7
[1]; 1 h p.i.
  SUV mean Blood pool, mediastinal: 3.2
  SUV mean Colon: 4.9
  SUV mean Gluteal muscle: 0.7
  SUV mean Kidneys: 13.8
  SUV mean Lacrimal gland: 7.4
  SUV mean Liver: 4.3
  SUV mean Lung metastasis: 5.7
  SUV mean Nasal mucosa: 2.9
  SUV mean Parotid gland: 11.0
  SUV mean Proximal small intestine: 8.4
  SUV mean Spleen: 5.1
  SUV mean Sublingual gland: 3.8
  SUV mean Submandibular gland: 14.4
[1]; 3 h p.i.
  SUV mean Blood pool, mediastinal: 2.9
  SUV mean Colon: 4.2
  SUV mean Gluteal muscle: 0.4
  SUV mean Kidneys: 10.9
  SUV mean Lacrimal gland: 7.6
  SUV mean Liver: 1.8
  SUV mean Lung metastasis: 4.7
  SUV mean Nasal mucosa: 3.5
  SUV mean Parotid gland: 8.0
  SUV mean Proximal small intestine: 10.4
  SUV mean Spleen: 2.5
  SUV mean Sublingual gland: 2.8
  SUV mean Submandibular gland: 8.9
[1]; second listed bone metastasis, 1 h p.i.
  SUV mean Bone metastasis: 6.9
[1]; second listed bone metastasis, 3 h p.i.
  SUV mean Bone metastasis: 5.7
[1]; second listed lymph node, 1 h p.i.
  SUV mean Lymph node: 17.0
[1]; second listed lymph node, 3 h p.i.
  SUV mean Lymph node: 25.4
[1]; third listed bone metastasis, 1 h p.i.
  SUV mean Bone metastasis: 4.6
[1]; third listed bone metastasis, 3 h p.i.
  SUV mean Bone metastasis: 4.4
[1]; third listed lymph node, 1 h p.i.
  SUV mean Lymph node: 5.0
[1]; third listed lymph node, 3 h p.i.
  SUV mean Lymph node: 4.1
[2]; 1 h
  mSUV Bladder: 6.50
  mSUV Heart: 0.36
  mSUV Kidneys: 0.39
  mSUV Liver: 0.22
  mSUV Muscle: 0.13
  mSUV Tumor: 0.81
[2]; 2 h
  mSUV Bladder: 2.5
  mSUV Heart: 0.13
  mSUV Kidneys: 0.29
  mSUV Liver: 0.09
  mSUV Muscle: 0.05
  mSUV Tumor: 0.78
[2]; mean SUV body weight from dynamic PET, 1 h p.i.
  tumor-to-kidney ratio: 2.08
[2]; mean SUV from PET, 2 h p.i.
  tumor-to-kidney ratio: 2.69
[3]; C4-2 tumor, 20 min after injection, 0.05 nmol, 20 MBq
  tumor uptake: 12.53 ± 0.45 %ID/g
[3]; C4-2 tumor, 1 h p.i., co-injection of non-labeled PSMA-617 2 mg/kg
  tumor uptake with blockade: 1.31 ± 0.34 %ID/g
[3]; kidneys, 1 h p.i., 0.05 nmol, 20 MBq
  kidney uptake: 15.58 ± 2.79 %ID/g
[3]; kidneys, 1 h p.i., co-injection of non-labeled PSMA-617 2 mg/kg
  kidney uptake with blockade: 2.37 ± 0.52 %ID/g
[4]
  plasma half-life t1/2: 5.2 min
